Results as given in ChEMBL document CHEMBL5385884, “Expanding role of CXCR2 and therapeutic potential of CXCR2 antagonists in inflammatory diseases and cancers” (Eur J Med Chem, 2023).

Key:
[1] = target: C-X-C chemokine receptor type 4 (Homo sapiens, UniProt P61073); experiment: Antagonist activity at SDF-1-activated CXCR4 (unknown origin) overexpressed in human U2OS cells preincubated for 30 mins followed by SDF-1 addition measured after 5 hrs by beta-lactamase reporter gene assay; assay type: functional, cell-based
[2] = target: T1, C-X-C chemokine receptor type 2 (Homo sapiens, UniProt P25025); experiment: Antagonist activity at CXCL8-activated CXCR2 (unknown origin) overexpressed in human U2OS cells preincubated for 30 mins followed by CXCL8 addition measured after 5 hrs by beta-lactamase reporter gene assay; assay type: functional, cell-based
T1 sequence (P25025 whole entry): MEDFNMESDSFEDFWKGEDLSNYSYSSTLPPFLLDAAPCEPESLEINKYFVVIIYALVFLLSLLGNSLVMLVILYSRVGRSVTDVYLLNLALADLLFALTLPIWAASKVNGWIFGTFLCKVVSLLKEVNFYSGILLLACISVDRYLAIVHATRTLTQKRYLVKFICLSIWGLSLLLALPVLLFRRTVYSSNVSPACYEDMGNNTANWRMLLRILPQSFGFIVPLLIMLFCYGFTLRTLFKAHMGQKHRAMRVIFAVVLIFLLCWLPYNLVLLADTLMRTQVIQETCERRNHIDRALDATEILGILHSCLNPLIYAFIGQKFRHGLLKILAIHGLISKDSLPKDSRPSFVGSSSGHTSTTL

[3] = Intrinsic clearance in human hepatocytes measured per million cells at 100 uM incubated upto 90 mins by LCMS/MS analysis; assay type: ADME, cell-based, Hepatocyte; conditions: read-out: CLH
[4] = Effective half life in human; assay type: ADME; conditions: read-out: t1/2eff (converted)
[5] = target: T1, C-X-C chemokine receptor type 2; experiment: Antagonist activity at CXCR2 (unknown origin); assay type: functional

Chain of C-X-C chemokine receptor type 4 (P61073 whole entry): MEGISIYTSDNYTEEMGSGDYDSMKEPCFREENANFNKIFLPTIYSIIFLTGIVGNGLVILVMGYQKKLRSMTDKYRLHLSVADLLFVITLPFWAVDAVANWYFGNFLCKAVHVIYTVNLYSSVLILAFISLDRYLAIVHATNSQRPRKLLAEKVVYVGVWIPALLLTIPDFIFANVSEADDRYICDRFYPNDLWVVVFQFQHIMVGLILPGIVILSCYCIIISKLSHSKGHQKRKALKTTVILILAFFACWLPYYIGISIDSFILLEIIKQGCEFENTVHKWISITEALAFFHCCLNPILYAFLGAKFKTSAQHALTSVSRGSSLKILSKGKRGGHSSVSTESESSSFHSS

Row | Structure (SMILES) | IC50 [1] | IC50 [2] | IC50 [5] | other results
1 | CC(=O)c1c(C)oc2c1cc(NS(=O)(=O)c1ccc(C(C)(C)C)cc1)c1ccccc12 | > 50 µM |  |  | 
2 | COc1cc(NS(=O)(=O)c2ccc(C)cc2)c2ncccc2c1 |  | 0.4 µM |  | 
3 | C[C@@H](Oc1cc(NS(=O)(=O)N2CCC2)nc(SCc2cccc(F)c2F)n1)[C@@H](O)CO |  |  |  | hepatocyte CLint at 100 µM [3]: < 5 µL/min/1e6 cells; half-life [4]: 4 h
4 | COc1cc(NS(=O)(=O)c2cccc3nsnc23)c2ncccc2c1 | 0.59 µM | 0.36 µM |  | 
5 | C[C@@H](C(=O)NS(C)(=O)=O)c1ccc(OS(=O)(=O)C(F)(F)F)cc1 [LADARIXIN] |  |  | 0.0007 µM | 
6 | O=C(Nc1ccc(F)cc1)c1cnc(SCc2cc(OC(F)(F)F)ccc2B(O)O)nc1 [SX-682] |  |  | 0.022 µM | 
